# Reference: patent US8889874B2, “Imidazolone-chalcone derivatives as potential anticancer agent and process for the preparation thereof” (Council of Scientific and Industrial Research, priority 2010, dated 2014)
# Where two headings read alike, the source gives them in different places.
# What was measured:
# Type in all cases: cell-based, human
# [1] = tested on: Ovarian cancer cell lines; test: NCI anticancer screen, SRB assay, panel summary; details: Homo sapiens
# Procedure: (§1) Some of biological activity studies were carried out at the National Cancer Institute (NCI), Maryland, USA.
# (§2) The compounds were evaluated for anticancer activity against fifty three human cancer cells derived from nine cancer types (leukemia cell line, non-small-cell lung cell line, colon cell line, CNS cell line, melanoma cell line, ovarian cell line, prostate cell line, and breast cancer cell line) as shown in Table 1. For each compound, dose response curves for each cell line were measured at a minimum of five concentrations at 10 fold dilutions. A protocol of 48 h continuous drug exposure was used and a sulforhodamine B (SRB) protein assay was used to estimate cell viability or growth.
# [2] = tested on: Non-small cell lung cancer cell lines; test: NCI anticancer screen, SRB assay, panel summary; details: Homo sapiens
# Procedure: as §1, §2
# Breast cancer cell lines = test: NCI anticancer screen, SRB assay, panel summary; details: Homo sapiens
# Procedure: as §1, §2
# [3] = tested on: Melanoma cancer cell lines; test: NCI anticancer screen, SRB assay, panel summary; details: for GI50: Homo sapiens
# Procedure: as §1, §2
# [4] = tested on: Leukemia cancer cell lines; test: NCI anticancer screen, SRB assay, panel summary; details: Homo sapiens
# Procedure: as §1, §2
# [5] = tested on: Prostate cancer cell lines; test: NCI anticancer screen, SRB assay, panel summary
# Procedure: as §1, §2
# Renal cancer cell lines = test: NCI anticancer screen, SRB assay, panel summary; details: Homo sapiens, Renal panel
# Procedure: as §1, §2
# Colon cancer cell lines = test: NCI anticancer screen, SRB assay, panel summary; details: for GI50: Homo sapiens
# Procedure: as §1, §2
# CNS cancer cell lines = test: NCI anticancer screen, SRB assay, panel summary; details: for GI50: Homo sapiens
# Procedure: as §1, §2
# OVCAR-5 (ovarian) = test: NCI anticancer screen, SRB assay, 48 h; details: Homo sapiens
# Procedure: as §1, §2
# UO-31 (renal) = test: NCI anticancer screen, SRB assay, 48 h; details: Homo sapiens
# Procedure: as §1, §2
# SF-539 (CNS) = test: NCI anticancer screen, SRB assay, 48 h; details: Homo sapiens
# Procedure: as §1, §2
# [6] = tested on: EKVX (non-small cell lung); test: NCI anticancer screen, SRB assay, 48 h; details: Homo sapiens
# Procedure: as §1, §2
# KM12 (colon) = test: NCI anticancer screen, SRB assay, 48 h; details: Homo sapiens
# Procedure: as §1, §2
# SN12C (renal) = test: NCI anticancer screen, SRB assay, 48 h; details: Homo sapiens, SN12C
# Procedure: as §1, §2
# HCC-2998 (colon) = test: NCI anticancer screen, SRB assay, 48 h; details: Homo sapiens
# Procedure: as §1, §2
# COLO 205 (colon) = test: NCI anticancer screen, SRB assay, 48 h; details: Homo sapiens, COLO 205
# Procedure: as §1, §2
# HCT-15 (colon) = test: NCI anticancer screen, SRB assay, 48 h; details: Homo sapiens
# Procedure: as §1, §2
# TD-47D (breast) = test: NCI anticancer screen, SRB assay, 48 h; details: Homo sapiens
# Procedure: as §1, §2
# PC-3 (prostate) = test: NCI anticancer screen, SRB assay, 48 h; details: Homo sapiens
# Procedure: as §1, §2
# OVCAR-3 (ovarian) = test: NCI anticancer screen, SRB assay, 48 h; details: Homo sapiens
# Procedure: as §1, §2
# [7] = tested on: NCI-H23 (non-small cell lung); test: NCI anticancer screen, SRB assay, 48 h; details: Homo sapiens
# Procedure: as §1, §2
# SK-MEL-2 (melanoma) = test: NCI anticancer screen, SRB assay, 48 h; details: Homo sapiens
# Procedure: as §1, §2
# [8] = tested on: A549/ATCC (non-small cell lung); test: NCI anticancer screen, SRB assay, 48 h; details: Homo sapiens
# Procedure: as §1, §2
# A498 (renal) = test: NCI anticancer screen, SRB assay, 48 h; details: Homo sapiens
# Procedure: as §1, §2
# SK-MEL-5 (melanoma) = test: NCI anticancer screen, SRB assay, 48 h; details: Homo sapiens
# Procedure: as §1, §2
# MDA-MB-435 (melanoma) = test: NCI anticancer screen, SRB assay, 48 h; details: Homo sapiens
# Procedure: as §1, §2
# BT-549 (breast) = test: NCI anticancer screen, SRB assay, 48 h; details: Homo sapiens
# Procedure: as §1, §2
# CAKI-1 (renal) = test: NCI anticancer screen, SRB assay, 48 h; details: Homo sapiens
# Procedure: as §1, §2
# [9] = tested on: NCI-H322M (non-small cell lung); test: NCI anticancer screen, SRB assay, 48 h; details: Homo sapiens
# Procedure: as §1, §2
# [10] = tested on: HOP-92 (non-small cell lung); test: NCI anticancer screen, SRB assay, 48 h; details: Homo sapiens
# Procedure: as §1, §2
# [11] = 48 h exposure, SRB, read-out: GI50
# [12] = read-out: pGI50 (-log of molar concentration causing 50% inhibition of net cell growth) (converted)
smiles,measurement,setting,value
"O=C(/C=C/c1cccc(O)c1)c1cccc(-n2cc(-c3ccccc3)[nH]c2=O)c1 [4a, 1-3-[(E)-3-(3-hydroxyphenyl)-2-propenoyl]phenyl-4-phenyl-2,3-dihydro-1H-2-imidazolone]",GI50,"[1]; Ovarian panel, log of concentration in mol/L causing 50% inhibition of net cell growth, read-out: mean graph midpoint (MG_MID) of Log10 GI50 (converted)",4.68 µM
same,LC50,"[1]; Ovarian panel, log of concentration leading to 50% net cell death, read-out: mean graph midpoint (MG_MID) of Log10 LC50 (converted)",46.8 µM
same,GI50,"[1]; six ovarian cancer cell lines, exposure at least 48 hrs, read-out: GI50, range over the panel",2.8 to 11.1 µM
same,GI50,"[2]; Non-small cell lung panel, log of concentration in mol/L causing 50% inhibition of net cell growth, read-out: mean graph midpoint (MG_MID) of Log10 GI50 (converted)",6.92 µM
same,GI50,"[2]; nine non-small cell lung cancer cell lines, exposure at least 48 hrs, read-out: GI50, range over the panel",2.49 to 24.8 µM
same,GI50,"Breast cancer cell lines; Breast panel, log of concentration in mol/L causing 50% inhibition of net cell growth, read-out: mean graph midpoint (MG_MID) of Log10 GI50 (converted)",4.79 µM
same,LC50,"Breast cancer cell lines; Breast panel, log of concentration leading to 50% net cell death, read-out: mean graph midpoint (MG_MID) of Log10 LC50 (converted)",72.4 µM
same,GI50,"Breast cancer cell lines; five breast cancer cell lines, exposure at least 48 hrs, read-out: GI50, range over the panel",2.47 to 9.32 µM
same,GI50,"[3]; Melanoma panel, log of concentration in mol/L causing 50% inhibition of net cell growth, read-out: mean graph midpoint (MG_MID) of Log10 GI50 (converted)",4.47 µM
same,GI50,"[3]; nine melanoma cancer cell lines, exposure at least 48 hrs, read-out: GI50, range over the panel",1.85 to 8.26 µM
same,mean graph midpoint (MG_MID) of Log10 LC50,"[3]; Melanoma panel, log of concentration leading to 50% net cell death",4.35
same,GI50,"[4]; Leukemia panel, log of concentration in mol/L causing 50% inhibition of net cell growth, read-out: mean graph midpoint (MG_MID) of Log10 GI50 (converted)",2.29 µM
same,LC50,"[4]; Leukemia panel, log of concentration leading to 50% net cell death, read-out: mean graph midpoint (MG_MID) of Log10 LC50 (converted)",≥ 100 µM
same,GI50,"[4]; two leukemia cancer cell lines (RPMI-8226 and K-562), exposure at least 48 hrs, read-out: GI50, range over the panel",2.12 to 3.35 µM
same,GI50,"[5]; Homo sapiens, log of concentration in mol/L causing 50% inhibition of net cell growth, read-out: mean graph midpoint (MG_MID) of Log10 GI50 (converted)",2.82 µM
same,LC50,"[5]; Homo sapiens, log of concentration leading to 50% net cell death, read-out: mean graph midpoint (MG_MID) of Log10 LC50 (converted)",49 µM
same,mean graph midpoint (MG_MID) of Log10 TGI,[5]; log of concentration resulting in total inhibition of net cell growth,4.90
same,GI50,"Renal cancer cell lines; log of concentration in mol/L causing 50% inhibition of net cell growth, read-out: mean graph midpoint (MG_MID) of Log10 GI50 (converted)",4.17 µM
same,LC50,"Renal cancer cell lines; log of concentration leading to 50% net cell death, read-out: mean graph midpoint (MG_MID) of Log10 LC50 (converted)",33.9 µM
same,mean graph midpoint (MG_MID) of Log10 LC50,"Colon cancer cell lines; Colon panel, log of concentration leading to 50% net cell death",4.55
same,GI50,"Colon cancer cell lines; Colon panel, log of concentration in mol/L causing 50% inhibition of net cell growth, read-out: mean graph midpoint (MG_MID) of Log10 GI50 (converted)",2.75 µM
same,GI50,"Colon cancer cell lines; seven colon cancer cell lines, exposure at least 48 hrs, read-out: GI50, range over the panel",1.83 to 4.09 µM
same,mean graph midpoint (MG_MID) of Log10 LC50,"CNS cancer cell lines; CNS panel, log of concentration leading to 50% net cell death",4.60
same,GI50,"CNS cancer cell lines; CNS panel, log of concentration in mol/L causing 50% inhibition of net cell growth, read-out: mean graph midpoint (MG_MID) of Log10 GI50 (converted)",5.75 µM
same,GI50,"CNS cancer cell lines; six CNS cancer cell lines, exposure at least 48 hrs, read-out: GI50, range over the panel",1.61 to 18.2 µM
same,GI50,OVCAR-5 (ovarian); [11],5.44 µM
same,GI50,OVCAR-5 (ovarian); [12],5.5 µM
same,GI50,UO-31 (renal); [11],2.16 µM
same,GI50,UO-31 (renal); [12],2.14 µM
same,GI50,SF-539 (CNS); [11],1.98 µM
same,GI50,SF-539 (CNS); [12],2 µM
same,GI50,[6]; [11],15.6 µM
same,GI50,[6]; [12],15.5 µM
same,GI50,KM12 (colon); [11],1.83 µM
same,GI50,KM12 (colon); [12],1.82 µM
same,GI50,"SN12C (renal); SN 12C, read-out: pGI50 (-log of molar concentration causing 50% inhibition of net cell growth) (converted)",3.16 µM
same,GI50,SN12C (renal); [11],3.14 µM
same,GI50,HCC-2998 (colon); [11],4.09 µM
same,GI50,HCC-2998 (colon); [12],4.07 µM
same,GI50,"COLO 205 (colon); COLO205, read-out: pGI50 (-log of molar concentration causing 50% inhibition of net cell growth) (converted)",2 µM
same,GI50,COLO 205 (colon); [11],2.01 µM
same,GI50,HCT-15 (colon); [11],3.1 µM
same,GI50,HCT-15 (colon); [12],3.09 µM
same,GI50,TD-47D (breast); [11],4.24 µM
same,GI50,TD-47D (breast); [12],4.27 µM
same,GI50,"PC-3 (prostate); PC-3, read-out: pGI50 (-log of molar concentration causing 50% inhibition of net cell growth) (converted)",2.82 µM
same,GI50,"PC-3 (prostate); one prostate cancer cell line (PC-3), exposure at least 48 hrs, read-out: GI50",2.82 µM
same,GI50,OVCAR-3 (ovarian); [11],3.08 µM
same,GI50,OVCAR-3 (ovarian); [12],3.09 µM
same,GI50,[7]; [11],3.35 µM
same,GI50,[7]; [12],3.39 µM
same,GI50,SK-MEL-2 (melanoma); [11],8.26 µM
same,GI50,SK-MEL-2 (melanoma); [12],8.32 µM
same,GI50,[8]; [11],3.89 µM
same,GI50,[8]; [12],3.89 µM
same,GI50,A498 (renal); [11],14.3 µM
same,GI50,A498 (renal); [12],14.5 µM
same,GI50,SK-MEL-5 (melanoma); [11],3.18 µM
same,GI50,SK-MEL-5 (melanoma); [12],3.16 µM
same,GI50,MDA-MB-435 (melanoma); [11],3.12 µM
same,GI50,MDA-MB-435 (melanoma); [12],3.09 µM
same,GI50,BT-549 (breast); [11],9.32 µM
same,GI50,BT-549 (breast); [12],9.33 µM
same,GI50,CAKI-1 (renal); [11],13.3 µM
same,GI50,CAKI-1 (renal); [12],13.2 µM
same,GI50,[9]; [11],10.6 µM
same,GI50,[9]; [12],10.7 µM
same,GI50,[10]; [11],5.04 µM
same,GI50,[10]; [12],5.01 µM
